In US6310091A, “Fungicidal saponin, CAY-1, and isolation thereof from Capsium species fruit” (The United States of America as represented by the …, priority 2000, dated 2001):
“And” between values parts separate entries of the source, which are not always exact repeats. Equal entries are not always repeated. Where two headings read alike, the source gives them in different places.

Key:
Format in all cases: cell-based
[1] = system: Aspergillus flavus; experiment: Fungicidal bioassay on nongerminated and germinating conidia of A. flavus
Procedure: (§1) 1. Filamentous fungi. Filamentous fungi used in bioassays included Aspergillus flavus, A. fumigatus, A. niger, A. parasiticus and Fusarium oxysporum. The fungicidal properties of CAY-1 for the nongerminated and germinating conidia of these fungi were determined separately as described by De Lucca et al. [Med. Mycol., 36:291-298 (1998)] and De Lucca et al. [Antimicrob. Agents Chemother. 43:371-373 (1999)]. […] Two separate experiments were conducted in each medium (n=8 per medium).
(§2) A suspension of the aforementioned fungi were prepared separately in the appropriate medium. Conidia (10^4 conidia/ml) were used immediately for the nongerminated conidial assays while conidia (10^5 conidia/ml) were incubated for 7.5 hours at 30° C. to obtain germinating conidia. Serial dilutions of CAY-1 were prepared in the appropriate medium (totaling 225 μl) to which was added 25 μl of the conidial suspensions. The control consisted of 225 μl of medium and 25 μl of the conidial suspension. After mixing, the samples were incubated for 30 min (30° C.). Samples were then spread on potato dextrose agar plates which were incubated at 30° C. for 24 hours. Colonies were then enumerated.
(§3) Statistical analyses. ANOVA analyses on ranks for nonparametric data were performed for the bioassays described in this example.

[2] = system: Fusarium oxysporum; experiment: Fungicidal bioassay on nongerminated and germinating conidia of F. oxysporum
Procedure: as §1, §2, §3

[3] = system: Aspergillus parasiticus; experiment: Fungicidal bioassay on nongerminated and germinating conidia of A. parasiticus; conditions: for activity at 5 µM / activity at 10 µM / activity at 15 µM / activity at 20 µM / minimal effective concentration: Aspergillus parasiticus, 0.5 h; for activity at 5 µM / activity at 10 µM / activity at 15 µM / activity at 20 µM: read-out: Percent of Mean Control; for viability reduction: 20.0 μM (24.8 μg/ml)
Procedure: as §1, §2, §3

[4] = system: Candida albicans; experiment: Effect on C. albicans viability (NCCLS broth dilution M-27A)
Procedure: 2. Candida albicans. The effect of CAY-1 on C. albicans viability was determined by the NCCLS methods (National Committee for Clinical Laboratory Standards, Wayne, Pa., 1997. Reference method for broth dilution antifungal susceptibility testing of yeasts. Approved standard M-27A, herein incorporated by reference).

[5] = nongerminated conidia, either test medium
[6] = nongerminated, RPMI-1640, 5.0 μM
[7] = nongerminated, RPMI-1640, 10.0 μM
[8] = nongerminated, RPMI-1640, 15.0 μM
[9] = nongerminated, RPMI-1640, 20.0 μM

## CC1CCC2(OC1)OC1CC3C4CCC5CC(OC6OC(CO)C(OC7OC(CO)C(O)C(OC8OC(CO)C(O)C(OC9OC(CO)C(O)C(O)C9O)C8O)C7OC7OC(CO)C(O)C(O)C7O)C(O)C6O)C(O)CC5(C)C4CCC3(C)C1C2C (stereo not shown) [CAY-1]
[1]; Aspergillus flavus, 0.5 h, read-out: concentration lethal to germinating conidia
  minimal effective concentration: 7.5 µM and 9.3 µg/mL
[1]; germinating conidia, RPMI-1640, p=0.0187
  concentration lethal to germinating conidia: 7.5 μM and 9.3 μg/ml
[1]; germinating, 1% PDB, 2.0 μM
  Mean No. of Colonies: 139.8
[1]; germinating, 1% PDB, 3.0 μM
  Mean No. of Colonies: 115.4
[1]; germinating, 1% PDB, 4.0 μM
  Mean No. of Colonies: 84.1
[1]; germinating, 1% PDB, 5.0 μM
  Mean No. of Colonies: 54.2
[1]; germinating, 1% PDB, 7.5 μM
  Mean No. of Colonies: 17.1
[1]; germinating, 1% PDB, 10.0 μM
  Mean No. of Colonies: 13.1
[1]; germinating, RPMI-1640, 1.0 μM
  Mean No. of Colonies: 52.6
[1]; germinating, RPMI-1640, 2.5 μM
  Mean No. of Colonies: 57.8
[1]; germinating, RPMI-1640, 5.0 μM
  Mean No. of Colonies: 25.1
[1]; germinating, RPMI-1640, 7.5 μM
  Mean No. of Colonies: 5.6
[1]; germinating, RPMI-1640, 10.0 μM
  Mean No. of Colonies: 3.6
[1]; [5]
  viability of nongerminated conidia: not affected
[1]; nongerminated, 1% PDB, 2.0 μM
  Mean No. of Colonies: 54.4
[1]; nongerminated, 1% PDB, 3.0 μM
  Mean No. of Colonies: 54.8
[1]; nongerminated, 1% PDB, 4.0 μM
  Mean No. of Colonies: 55.2
[1]; nongerminated, 1% PDB, 5.0 μM
  Mean No. of Colonies: 55.7
[1]; nongerminated, 1% PDB, 7.5 μM
  Mean No. of Colonies: 56.9
[1]; nongerminated, 1% PDB, 10.0 μM
  Mean No. of Colonies: 58.0
[1]; nongerminated, RPMI-1640, 1.0 μM
  Mean No. of Colonies: 53.6
[1]; nongerminated, RPMI-1640, 2.5 μM
  Mean No. of Colonies: 55.8
[1]; [6]
  Mean No. of Colonies: 55.5
[1]; nongerminated, RPMI-1640, 7.5 μM
  Mean No. of Colonies: 54.9
[1]; [7]
  Mean No. of Colonies: 60.0
[2]
  activity against conidia: not active
[3]; germinated, RPMI-1640, 5.0 μM
  activity at 5 µM: 56.6%
  Mean No. of Colonies: 40.1
[3]; germinated, RPMI-1640, 10.0 μM
  activity at 10 µM: 17.5%
  Mean No. of Colonies: 12.4
[3]; germinated, RPMI-1640, 15.0 μM
  activity at 15 µM: 12.7%
  Mean No. of Colonies: 9.0
[3]; germinated, RPMI-1640, 20.0 μM
  activity at 20 µM: 8.1%
  Mean No. of Colonies: 5.7
[3]; germinating, 1% PDB, 5.0 μM
  activity at 5 µM: 61.9%
  Mean No. of Colonies: 95.5
[3]; germinating, 1% PDB, 10.0 μM
  activity at 10 µM: 28%
  Mean No. of Colonies: 43.3
[3]; germinating, 1% PDB, 15.0 μM
  activity at 15 µM: 21%
  Mean No. of Colonies: 32.5
[3]; germinating, 1% PDB, 20.0 μM
  activity at 20 µM: 16.5%
  Mean No. of Colonies: 25.5
[3]; nongerminated, 1% PDB, 5.0 μM
  activity at 5 µM: 97.3%
  Mean No. of Colonies: 53.1
[3]; nongerminated, 1% PDB, 10.0 μM
  activity at 10 µM: 100%
  Mean No. of Colonies: 54.6
[3]; nongerminated, 1% PDB, 15.0 μM
  activity at 15 µM: 93.9%
  Mean No. of Colonies: 51.3
[3]; nongerminated, 1% PDB, 20.0 μM
  activity at 20 µM: 94.5%
  Mean No. of Colonies: 51.9
[3]; [6]
  activity at 5 µM: 103%
  Mean No. of Colonies: 42.5
[3]; [7]
  activity at 10 µM: 103%
  Mean No. of Colonies: 42.5
[3]; [8]
  activity at 15 µM: 87.9%
  Mean No. of Colonies: 36.4
[3]; [9]
  activity at 20 µM: 97.6%
  Mean No. of Colonies: 40.4
[3]; read-out: concentration required for significant viability reduction
  minimal effective concentration: 12.4 µg/mL
[3]; germinating conidia, 1% PDB, p=0.001, read-out: concentration significantly reducing viability
  minimal effective concentration: 5 µM and 6.2 µg/mL
[3]; germinating conidia, RPMI-1640, p=0.0002, read-out: concentration required for significant viability reduction
  minimal effective concentration: 10 µM
[3]; germinating conidia, 1% PDB
  viability reduction: 85%
[3]; germinating conidia, RPMI-1640
  viability reduction: 92%
[3]; [5]
  viability of nongerminated conidia: not affected
[4]
  IC50: 3.1 µM and 3.8 µg/mL
  IC90: 6.2 µM and 7.7 µg/mL
[4]; read-out: lowest effective level in vitro
  minimal effective concentration: ~3 µM
